Literature values in US10493116B2, “Longevity gene expression enhancer” (Shiseido Company, Ltd., priority 2014, dated 2019).

Experiments:
sirtuin-1 [1] = target: T1, sirtuin-1 (Homo sapiens, UniProt Q96EB6)
T1 sequence (Q96EB6 1-747): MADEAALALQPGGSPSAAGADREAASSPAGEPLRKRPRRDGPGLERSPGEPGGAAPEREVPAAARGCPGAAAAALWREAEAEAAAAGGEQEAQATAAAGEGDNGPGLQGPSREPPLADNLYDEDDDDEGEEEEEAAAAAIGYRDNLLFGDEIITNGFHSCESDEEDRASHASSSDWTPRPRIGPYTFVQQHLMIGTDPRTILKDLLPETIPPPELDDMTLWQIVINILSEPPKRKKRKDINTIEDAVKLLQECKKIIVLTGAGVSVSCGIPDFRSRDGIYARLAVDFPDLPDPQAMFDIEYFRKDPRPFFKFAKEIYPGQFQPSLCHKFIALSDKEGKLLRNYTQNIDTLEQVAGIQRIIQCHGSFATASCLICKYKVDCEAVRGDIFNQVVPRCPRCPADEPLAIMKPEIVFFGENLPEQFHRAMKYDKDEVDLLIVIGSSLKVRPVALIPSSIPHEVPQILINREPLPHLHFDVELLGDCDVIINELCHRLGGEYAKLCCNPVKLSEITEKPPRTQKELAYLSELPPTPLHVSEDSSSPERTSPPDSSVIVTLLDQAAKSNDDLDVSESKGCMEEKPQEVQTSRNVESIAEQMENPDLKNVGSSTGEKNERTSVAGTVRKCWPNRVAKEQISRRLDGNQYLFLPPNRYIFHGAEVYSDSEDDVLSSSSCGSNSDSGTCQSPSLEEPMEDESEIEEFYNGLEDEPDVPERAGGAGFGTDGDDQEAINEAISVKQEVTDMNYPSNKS

sirtuin-1 [2] = conditions: quercetin produced from rutin in the body; J. Pharmacol. Sci., 2008, 108, 364-71

In the case of `O=C(/C=C/c1ccc(O)c(O)c1)O[C@@H]1C[C@](O)(C(=O)O)C[C@@H](O)[C@H]1O` [chlorogenic acid], the sirtuin-1 activating effect (sirtuin-1 [1]; PLoS One, 2014, 9(2), e89166) is listed as “no sirtuin-1 activating effect”.

In the case of `COc1ccc([C@@H]2CC(=O)c3c(O)cc(O[C@@H]4O[C@H](CO[C@@H]5O[C@@H](C)[C@H](O)[C@@H](O)[C@H]5O)[C@@H](O)[C@H](O)[C@H]4O)cc3O2)cc1O` [hesperidin], the “effect of activating sirtuin-1” value (sirtuin-1 [1]; at 5 μM, Biosci. Biotechnol. Biochem., 2012, 76(4), 640-645) is given as “effect of activating sirtuin-1”.

For `O=c1c(O)c(-c2ccc(O)c(O)c2)oc2cc(O)cc(O)c12` [quercetin], the “sirtuin-1 expression inhibiting effect” value (sirtuin-1 [2]) is listed as “sirtuin-1 expression inhibiting effect”.
